US20090048160A1, “Antimicrobial activity of bovine bactericidal/permeability-increasing protein (BPI)-derived peptides against Gram-negative bacterial mastitis isolates” (priority 2007, published 2009)
Converted amounts (≈) assume the structure as drawn. Like-named read-outs stand apart in the source and are kept apart here.

Columns and labels:
Serratia marcescens = assay: microbe, parasite or virus in culture; format: cell-based; settings: Serratia marcescens, read-out: MIC
Source text: (§1) Bacterial isolates of Escherichia coli, Klebsiella pneumonia, Serratia marcescens, Pseudomonas aeruginosa, Enterobacter cloacae, and Enterobacter aerogenes, which were obtained from clinical cases of bovine mastitis, were used to assess the bactericidal activity of peptides in a broth microdilution assay. Isolates were obtained from repositories at Cornell University (gift of Dr. Y. H. Schukken; Quality Milk Production Services Program, Cornell University, Ithaca N.Y.) and the USDA Beltsville Agricultural Research Center. […] A. J. Bramley, Institute for Animal Health, Compton Laboratory, Newbury, England), which was originally isolated from a clinical case of mastitis ([…]. Dairy Res. 43: 205-211) was also used to assess the bactericidal activity of the peptides in biological fluids. Reference strains of E. coli (ATCC 25922) and Staphylococcus aureus (ATCC 29213) were obtained from a commercial source (American Type Culture Collection (ATCC), Manassas, Va.). To obtain fresh inoculums for evaluation, a sterile loop of each bacterial glycerol stock was streaked on a blood agar plate. After an overnight incubation at 35° C., a single uniform colony was picked and sub-passaged by streaking on a new blood agar plate and incubating the plate overnight at 35° C. To evaluate the antimicrobial activity of the peptides against various clinical mastitis bacterial isolates, the minimum inhibitory concentration (MIC) and the minimum bactericidal concentration (MBC) of these peptides against the isolates were determined using a standardized broth microdilution assay. In addition to the mastitis isolates, E. coli (ATCC 25922) and S. aureus (ATCC 29213) reference strains were evaluated. […] The assays were performed in accordance with Clinical and Laboratory Standards Institute (CLSI) [formerly National Committee for Clinical Laboratory Standards (NCCLS)] guidelines (National Committee for Clinical Laboratory Standards. 1999. Methods for Determining Bacterial Activity of Antimicrobial Agents: Approved Guideline. Wayne, Pa.; National Committee for Clinical Laboratory Standards. 2002. Performance Standards for Antimicrobial Disk and Dilution Susceptibility Tests for Bacteria Isolated from Animals: Approved Standard. 2nd Edition, Wayne, Pa.). […] The bacterial suspension was then diluted 100-fold in cation-adjusted Mueller-Hinton broth to reach a final inoculum concentration of 10^6 CFU/ml. […] A negative control column was included in the plate that included 100 μl of broth alone. The plates were incubated for 18 h at 35° C. with ambient air circulation and without shaking. The wells were subsequently inspected for cloudiness and pellet formation using a magnifying glass plate reader. The lowest concentration at which no pellet or cloudiness was apparent in a given well was identified as the MIC. […] The plates were incubated overnight at 35° C. and colonies subsequently enumerated. The MBC values were determined as the lowest concentration at which ≧99.9% of inoculated bacteria were killed. All assays were performed in triplicate and the MIC and MBC range reported.

Staphylococcus aureus = assay: microbe, parasite or virus in culture; format: cell-based; settings: ATCC29213; Staphylococcus aureus ATCC 29213; read-out: MIC
Source text: as §1

Enterobacter cloacae = assay: microbe, parasite or virus in culture; format: cell-based
Source text: as §1

Escherichia coli = assay: microbe, parasite or virus in culture; format: cell-based; settings: Escherichia coli; for MIC: read-out: MIC
Source text: as §1

Klebsiella pneumoniae = assay: microbe, parasite or virus in culture; format: cell-based; settings: Klebsiella pneumoniae, read-out: MIC
Source text: as §1

Pseudomonas aeruginosa = assay: microbe, parasite or virus in culture; format: cell-based; settings: Pseudomonas aeruginosa, read-out: MIC
Source text: as §1

[1] = tested on: bacterial LPS derived from E. coli 0111:B4; assay: LPS neutralization, Limulus amebocyte lysate (LAL) assay; format: biochemical; settings: 1 ng LPS
Description: FIG. 1 depicts the mean (±S.E.) percent neutralization of bacterial LPS bioactivity as determined with the Limulus amebocyte lysate assay. Increasing concentrations of peptides or polymixin B were incubated with 1 ng of E. coli-derived LPS for 30 min. Following incubation, the amount of free LPS was determined by extrapolation from a standard curve and the percent of bound (neutralized) LPS was calculated.
The ability of the peptides to neutralize LPS was determined using a commercially available Limulus amebocyte lysate (LAL) assay (Cambrex BioScience Walkersville, Inc., Walkersville, Md.). As a positive control, polymyxin B (Sigma Chemical Co.) was evaluated in parallel with the peptides. Increasing concentrations of peptides or polymyxin B were incubated with 1 ng of highly purified bacterial LPS (Sigma Chemical Co.), derived from E. coli 0111:B4, in a 500 μl reaction volume of endotoxin-free water for 30 min at 37° C. while shaking at 100 rpm. Following the incubation, the amount of free LPS was determined in each sample according to the manufacturer's instructions. Briefly, 50 μl of the above mixture was placed into a 96-well microtiter plate and the reaction initiated by the addition of an equal volume of amoebocyte lysate. Following an incubation at 37° C. for 10 min, 100 μl of chromogenic substrate was added and the plate incubated for 5-10 min at 37° C. The reaction was stopped by the addition of 50 μl of glacial acetic acid and the absorbance measured at a wavelength of 405 nm on a microplate reader (Biotec Instruments, Inc., Winooski, Vt.). The amount of non-bound LPS was extrapolated from a standard curve and the percent inhibition calculated according to the following formula: […]
To determine whether the bBPI peptides were able to neutralize LPS, increasing concentrations of the peptides were incubated with LPS (1 ng) and the resulting mixture assayed with the LAL assay (FIG. 1). As a positive and negative control, respectively, polymyxin B and a non-BPI-derived peptide were also assayed. […] In contrast, bBPI142-169 and bBPI90-99,148-161 were able to neutralize ≧93% of LPS activity at peptide concentrations of 30 and 100 μg/ml, respectively.

CN(C)[C@@H]1C(O)=C(C(N)=O)C(=O)[C@@]2(O)C(O)=C3C(=O)c4c(O)cccc4[C@@](C)(O)[C@H]3C[C@@H]12 [Tetracycline, reference compound]
MIC (Serratia marcescens; Serratia marcescens Isolate #1): 32 µg/mL (≈ 72 µM)
MIC (Serratia marcescens; Serratia marcescens Isolate #2): 64 µg/mL (≈ 144 µM)
MIC (Serratia marcescens; Serratia marcescens Isolate #3): 64 µg/mL (≈ 144 µM)
MIC (Serratia marcescens; Serratia marcescens Isolate #4): 64 µg/mL (≈ 144 µM)
MIC (Serratia marcescens; Serratia marcescens Isolate #5): 64 µg/mL (≈ 144 µM)
MIC (Serratia marcescens; Serratia marcescens Isolate #6): 64 µg/mL (≈ 144 µM)
MIC (Staphylococcus aureus): 0.25 to 0.5 µg/mL (≈ 0.563 to 1.13 µM)
MIC (Enterobacter cloacae; Enterobacter cloacae Isolate #2, read-out: MIC): 4 µg/mL (≈ 9 µM)
MIC (Enterobacter cloacae; Enterobacter cloacae Isolate #4): 4 µg/mL (≈ 9 µM)
MBC (Escherichia coli; ATCC25922, Escherichia coli ATCC 25922, read-out: MBC): 64 µg/mL (≈ 144 µM)
MIC (Escherichia coli; ATCC25922, Escherichia coli ATCC 25922): 0.5 to 1 µg/mL (≈ 1.13 to 2.25 µM)
MIC (Escherichia coli; Escherichia coli Isolate #1): 4 µg/mL (≈ 9 µM)
MIC (Escherichia coli; Escherichia coli Isolate #2): 4 µg/mL (≈ 9 µM)
MIC (Escherichia coli; Escherichia coli Isolate #3): 4 µg/mL (≈ 9 µM)
MIC (Escherichia coli; Escherichia coli Isolate #4): 4 µg/mL (≈ 9 µM)
MIC (Escherichia coli; Escherichia coli Isolate #5): 4 µg/mL (≈ 9 µM)
MIC (Escherichia coli; Escherichia coli Strain P4): 1 µg/mL (≈ 2.25 µM)
MIC (Klebsiella pneumoniae; Klebsiella pneumoniae Isolate #1): 64 µg/mL (≈ 144 µM)
MIC (Klebsiella pneumoniae; Klebsiella pneumoniae Isolate #3): 1 µg/mL (≈ 2.25 µM)
MIC (Klebsiella pneumoniae; Klebsiella pneumoniae Isolate #4): 64 µg/mL (≈ 144 µM)
MIC (Klebsiella pneumoniae; Klebsiella pneumoniae Isolate #5): 16 µg/mL (≈ 36 µM)
MIC (Klebsiella pneumoniae; Klebsiella pneumoniae Isolate #6): 0.5 µg/mL (≈ 1.13 µM)
MIC (Pseudomonas aeruginosa; Pseudomonas aeruginosa Isolate #1): 32 µg/mL (≈ 72 µM)
MIC (Pseudomonas aeruginosa; Pseudomonas aeruginosa Isolate #2): 16 µg/mL (≈ 36 µM)
MIC (Pseudomonas aeruginosa; Pseudomonas aeruginosa Isolate #3): 32 µg/mL (≈ 72 µM)
MIC (Pseudomonas aeruginosa; Pseudomonas aeruginosa Isolate #4): 16 µg/mL (≈ 36 µM)
MIC (Pseudomonas aeruginosa; Pseudomonas aeruginosa Isolate #5): 32 µg/mL (≈ 72 µM)
MIC (Pseudomonas aeruginosa; Pseudomonas aeruginosa Isolate #6): 16 µg/mL (≈ 36 µM)

MCHWAGGASNTGDARGDV FGKQAG (MCHWAGGASNTGDARGDVFGKQAG; listed as Bos sp.) [control peptide, non-BPI-derived control peptide provided by the peptide synthesis company; negative control, reference compound]
inhibition of LPS activity ([1]; 100 μg/ml, 30 min): no inhibitory effect

polymyxin B [reference compound]
inhibition of LPS activity (in words) ([1]; increasing concentrations): inhibited LPS activity in dose-dependent manner
